Results published in patent US11298363B2, “Triazolobenzazepines as vasopressin V1a receptor antagonists” (RICHTER GEDEON NYRT., priority 2017, dated 2022).

How the values were obtained:
[1] = biological target: T1, human vasopressin V1a receptor (Homo sapiens, UniProt P37288); assay: Human vasopressin V1a receptor binding assay; settings: 1321N1 cell membranes, [3H]vasopressin; read-out: Ki (nM) on hV1a cell line
In short: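 Ki values come from IC50 via Cheng-Prusoff (KD from prior Scatchard), averaged over at least two independent runs. Human V1a membranes were incubated with radioligand 60 minutes at 27° C., bound ligand collected by filtration; (Arg^8)-vasopressin at 1.2×10^−6 M defined non-specific binding.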

[2] = biological target: T1, human vasopressin V1a receptor; assay: Functional assay on human vasopressin V1a receptor expressing cell line (intracellular Ca2+ fluorescence); format: cell-based; settings: 1321N1 cells, (Arg8)-vasopressin at EC80; read-out: IC50 (nM) on hV1a cell line

T1 sequence (P37288 whole entry): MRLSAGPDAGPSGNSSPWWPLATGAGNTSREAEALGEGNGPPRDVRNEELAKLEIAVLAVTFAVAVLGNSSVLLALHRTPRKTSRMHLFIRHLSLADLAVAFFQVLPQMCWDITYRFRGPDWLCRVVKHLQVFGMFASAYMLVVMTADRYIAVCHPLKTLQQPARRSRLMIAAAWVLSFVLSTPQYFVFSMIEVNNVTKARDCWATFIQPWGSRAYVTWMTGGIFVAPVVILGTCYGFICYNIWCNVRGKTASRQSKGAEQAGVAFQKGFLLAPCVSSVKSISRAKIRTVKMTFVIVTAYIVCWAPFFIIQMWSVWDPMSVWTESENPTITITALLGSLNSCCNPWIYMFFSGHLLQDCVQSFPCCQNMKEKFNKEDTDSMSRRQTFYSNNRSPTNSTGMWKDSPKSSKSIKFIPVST

Compound	Ki [1]	IC50 [2]
CN(C)CCN[C@@H]1Cc2cc(Cl)ccc2-n2c(nnc2[C@H]2CC[C@H](Oc3ccccn3)CC2)C1 [Example 194, N′-{(5R)-8-chloro-1-[trans-4-(pyridin-2-yloxy)cyclohexyl]-5,6-dihydro-4H-[1,2,4]triazolo[4,3-a][1]benzazepin-5-yl}-N,N-dimethylethane-1,2-diamine]	1.1 nM	22 nM
OCCN[C@@H]1Cc2cc(Cl)ccc2-n2c(nnc2[C@H]2CC[C@H](Oc3ccccn3)CC2)C1 [Example 196, 2-({(5R)-8-chloro-1-[trans-4-(pyridin-2-yloxy)cyclohexyl]-5,6-dihydro-4H-[1,2,4]triazolo[4,3-a][1]benzazepin-5-yl}amino)ethanol]	0.5 nM	2.7 nM
Clc1ccc2c(c1)C[C@H](NCC1CC1)Cc1nnc([C@H]3CC[C@H](Oc4ccccn4)CC3)n1-2 [Example 199]	2.2 nM	23 nM
CN1CCC(C(=O)N[C@H]2Cc3cc(Cl)ccc3-n3c(nnc3[C@H]3CC[C@H](Oc4ccccn4)CC3)C2)CC1 [Example 200]	114 nM	1190 nM
O=C(N[C@H]1Cc2cc(Cl)ccc2-n2c(nnc2[C@H]2CC[C@H](Oc3ccccn3)CC2)C1)C(F)(F)F [Example 201]	3.9 nM	19 nM
O=C(N[C@H]1Cc2cc(Cl)ccc2-n2c(nnc2[C@H]2CC[C@H](Oc3ccccn3)CC2)C1)C1CC(F)(F)C1 [Example 210, N-{(5S)-8-chloro-1-[trans-4-(pyridin-2-yloxy)cyclohexyl]-5,6-dihydro-4H-[1,2,4]triazolo[4,3-a][1]benzazepin-5-yl}-3,3-difluorocyclobutanecarboxamide]	56 nM	292 nM
C#CCOC1Cc2cc(Cl)ccc2-n2c(nnc2[C@H]2CC[C@H](Oc3ccccn3)CC2)C1 (stereo partly drawn) [Example 211, 8-chloro-5-(prop-2-yn-1-yloxy)-1-[trans-4-(pyridin-2-yloxy)cyclohexyl]-5,6-dihydro-4H-[1,2,4]triazolo[4,3-a][1]benzazepine]	0.7 nM	1.3 nM
O=C(OC1Cc2cc(Cl)ccc2-n2c(nnc2[C@H]2CC[C@H](Oc3ccccn3)CC2)C1)C1CCC(F)(F)CC1 (stereo partly drawn) [Example 212, 8-chloro-1-[trans-4-(pyridin-2-yloxy)cyclohexyl]-5,6-dihydro-4H-[1,2,4]triazolo[4,3-a][1]benzazepin-5-yl 4,4-difluorocyclohexanecarboxylate]	2.8 nM	34 nM
O=C(OC1Cc2cc(Cl)ccc2-n2c(nnc2[C@H]2CC[C@H](Oc3ccccn3)CC2)C1)C1CC(F)(F)C1 (stereo partly drawn) [Example 213, 8-chloro-1-[trans-4-(pyridin-2-yloxy)cyclohexyl]-5,6-dihydro-4H-[1,2,4]triazolo[4,3-a][1]benzazepin-5-yl 3,3-difluorocyclobutanecarboxylate]	0.6 nM	5.5 nM
O=C(N[C@H]1Cc2cc(Cl)ccc2-n2c(nnc2[C@H]2CC[C@H](Oc3ccccn3)CC2)C1)C1CCC(F)(F)CC1 [Example 214, N-{(5S)-8-chloro-1-[trans-4-(pyridin-2-yloxy)cyclohexyl]-5,6-dihydro-4H-[1,2,4]triazolo[4,3-a][1]benzazepin-5-yl}-4,4-difluorocyclohexanecarboxamide]	66 nM	672 nM
CN(C)CC(=O)OC1Cc2cc(Cl)ccc2-n2c(nnc2[C@H]2CC[C@H](Oc3ccccn3)CC2)C1 (stereo partly drawn) [Example 216, 8-chloro-1-[trans-4-(pyridin-2-yloxy)cyclohexyl]-5,6-dihydro-4H-[1,2,4]triazolo[4,3-a][1]benzazepin-5-yl N,N-dimethylglycinate]	0.7 nM	1.5 nM
COC1Cc2cc(Cl)ccc2-n2c(nnc2[C@H]2CC[C@@H](N3CCCC3=O)CC2)C1 (stereo partly drawn) [Example 218, 1-[cis-4-(8-chloro-5-methoxy-5,6-dihydro-H-[1,2,4]triazolo[4,3-a][1]benzazepin-1-yl)cyclohexyl]pyrrolidin-2-one]	97 nM	1250 nM
O=C(N[C@@H]1Cc2cc(Cl)ccc2-n2c(nnc2[C@H]2CC[C@H](Oc3ccccn3)CC2)C1)C1CC(F)(F)C1 [Example 220, N-{(5R)-8-chloro-1-[trans-4-(pyridin-2-yloxy)cyclohexyl]-5,6-dihydro-4H-[1,2,4]triazolo[4,3-a][1]benzazepin-5-yl}-3,3-difluorocyclobutanecarboxamide]	0.4 nM	2.6 nM
O=C(N[C@@H]1Cc2cc(Cl)ccc2-n2c(nnc2[C@H]2CC[C@H](Oc3ccccn3)CC2)C1)C1CCC(F)(F)CC1 [Example 221, N-{(5R)-8-chloro-1-[trans-4-(pyridin-2-yloxy)cyclohexyl]-5,6-dihydro-4H-[1,2,4]triazolo[4,3-a][1]benzazepin-5-yl}-4,4-difluorocyclohexanecarboxamide]	0.9 nM	9.8 nM
COC1Cc2cc(Cl)ccc2-n2c(nnc2[C@H]2CC[C@](OC)(C(F)(F)F)CC2)C1 (stereo partly drawn) [Example 222, 8-chloro-5-methoxy-1-[cis-4-methoxy-4-(trifluoromethyl)cyclohexyl]-5,6-dihydro-4H-[1,2,4]triazolo[4,3-a][1]benzazepine]	5.8 nM	40 nM
COC1Cc2cc(Cl)ccc2-n2c(nnc2[C@H]2CC[C@@](OC)(C(F)(F)F)CC2)C1 (stereo partly drawn) [Example 223, 8-chloro-5-methoxy-1-[trans-4-methoxy-4-(trifluoromethyl)cyclohexyl]-5,6-dihydro-4H-[1,2,4]triazolo[4,3-a][1]benzazepine]	1.6 nM	8.1 nM
FC(F)(F)CN[C@H]1Cc2cc(Cl)ccc2-n2c(nnc2[C@H]2CC[C@H](Oc3ccccn3)CC2)C1 [Example 224, (5S)-8-chloro-1-[trans-4-(pyridin-2-yloxy)cyclohexyl]-N-(2,2,2-trifluoroethyl)-5,6-dihydro-4H-[1,2,4]triazolo[4,3-a][1]benzazepin-5-amine]	0.7 nM	3.6 nM
CC1(C(=O)N[C@H]2Cc3cc(Cl)ccc3-n3c(nnc3[C@H]3CC[C@H](Oc4ccccn4)CC3)C2)COC1 [Example 225]	48 nM	854 nM

The remaining compounds from weak to strong by Ki [1], led by results:

Ki [1]	IC50 [2]	Compound
0.4 nM	1 nM	COCCOC1Cc2cc(Cl)ccc2-n2c(nnc2[C@H]2CC[C@H](Oc3ccccn3)CC2)C1 (stereo partly drawn) [Example 202, 8-chloro-5-(2-methoxyethoxy)-1-[trans-4-(pyridin-2-yloxy)cyclohexyl]-5,6-dihydro-4H-[1,2,4]triazolo[4,3-a][1]benzazepine]
0.3 nM	4.1 nM	COC1Cc2cc(Cl)ccc2-n2c(nnc2N2CCC(Oc3ccccn3)CC2)C1 (stereo not shown) [Example 197, 8-chloro-5-methoxy-1-[4-(pyridin-2-yloxy)piperidin-1-yl]-5,6-dihydro-4H-[1,2,4]triazolo[4,3a][1]benzazepine]
0.3 nM	1.4 nM	O=C(N[C@@H]1Cc2cc(Cl)ccc2-n2c(nnc2[C@H]2CC[C@H](Oc3ccccn3)CC2)C1)C(F)(F)F [Example 217, N-{(5R)-8-chloro-1-[trans-4-(pyridin-2-yloxy)cyclohexyl]-5,6-dihydro-4H-[1,2,4]triazolo[4,3-a][1]benzazepin-5-yl}-2,2,2-trifluoroacetamide]
0.3 nM	1.6 nM	CC(=O)OC1Cc2cc(Cl)ccc2-n2c(nnc2[C@H]2CC[C@H](Oc3ccccn3)CC2)C1 (stereo partly drawn) [Example 195, 8-chloro-1-[trans-4-(pyridin-2-yloxy)cyclohexyl]-5,6-dihydro-4H-[1,2,4]triazolo[4,3-a][1]benzazepin-5-yl acetate]
0.3 nM	4.2 nM	CS(=O)(=O)CCOC1Cc2cc(Cl)ccc2-n2c(nnc2[C@H]2CC[C@H](Oc3ccccn3)CC2)C1 (stereo partly drawn) [Example 207, 8-chloro-5-[2-(methylsulfonyl)ethoxy]-1-[trans-4-(pyridin-2-yloxy)cyclohexyl]-5,6-dihydro-4H-[1,2,4]triazolo[4,3-a][1]benzazepine]
0.2 nM	0.9 nM	FC1Cc2cc(Cl)ccc2-n2c(nnc2[C@H]2CC[C@H](Oc3ccccn3)CC2)C1 (stereo partly drawn) [Example 206, 8-chloro-5-fluoro-1-[trans-4-(pyridin-2-yloxy)cyclohexyl]-5,6-dihydro-4H-[1,2,4]triazolo[4,3-a][1]benzazepine]
0.2 nM	1.6 nM	C#CCN(C)[C@H]1Cc2cc(Cl)ccc2-n2c(nnc2[C@H]2CC[C@H](Oc3ccccn3)CC2)C1 [Example 209, (5S)-8-chloro-N-methyl-N-(prop-2-yn-1-yl)-1-[trans-4-(pyridin-2-yloxy)cyclohexyl]-5,6-dihydro-4H-[1,2,4]triazolo[4,3-a][1]benzazepin-5-amine]
0.2 nM	3.7 nM	N#CCC(=O)OC1Cc2cc(Cl)ccc2-n2c(nnc2[C@H]2CC[C@H](Oc3ccccn3)CC2)C1 (stereo partly drawn) [Example 215, 8-chloro-1-[trans-4-pyridin-2-yloxy)cyclohexyl]-5,6-dihydro-4H-[1,2,4]triazolo[4,3-a][1]benzazepin-5-yl cyanoacetate]
0.2 nM	22 nM	COC1Cc2cc(Cl)ccc2-n2c(nnc2[C@H]2CC[C@H](N3CCCC3=O)CC2)C1 (stereo partly drawn) [Example 219, 1-[trans-4-(8-chloro-5-methoxy-5,6-dihydro-4H-[1,2,4]triazolo[4,3-a][1]benzazepin-1-yl)cyclohexyl]pyrrolidin-2-one]
0.1 nM	0.9 nM	Clc1ccc2c(c1)CC1(Cc3nnc([C@H]4CC[C@H](Nc5ccccn5)CC4)n3-2)OCCO1 [Example 193, N-[trans-4-(8′-chloro-4′H,6′H-spiro[1,3-dioxolane-2,5′-[1,2,4]triazolo[4,3-a][1]benzazepin]-1′-yl)cyclohexyl]pyridin-2-amine]
0.1 nM	2.2 nM	O/N=C1/Cc2cc(Cl)ccc2-n2c(nnc2[C@H]2CC[C@H](Oc3ccccn3)CC2)C1 [Example 208, 8-chloro-N-hydroxy-1-[trans-4-(pyridin-2-yloxy)cyclohexyl]-4H-[1,2,4]triazolo[4,3-a][1]benzazepin-5(6H)-imine]
